Measured values as given in ChEMBL document CHEMBL1156994, “Chemopreventive activities of etodolac and oxyphenbutazone against mouse skin carcinogenesis” (Bioorg Med Chem Lett, 2010).

Columns and labels:
Mus musculus [1] = test: Inhibition of DMBA-induced/TPA-promoted skin carcinogenesis in ICR mouse assessed as reduction in tumor burden at 0.0025% topically applied qd treated one week before DMBA-TPA challenge after 20 weeks relative to control; format: functional
Mus musculus [2] = test: Toxicity in ICR mouse at 0.0025%, po; format: organism-based; conditions: in vivo
Mus musculus [3] = test: Inhibition of peroxynitrite-induced/TPA promoted skin carcinogenesis in HOS-HR-1 mouse assessed as decrease in tumor burdon at 0.0025%, po treated one week before peroxynitrite-TPA challenge after 20 weeks relative to control; format: functional
Mus musculus [4] = test: Inhibition of peroxynitrite-induced/TPA promoted skin carcinogenesis in HOS-HR-1 mouse assessed as increase in tumor latency period at 0.0025%, po treated one week before peroxynitrite-TPA challenge after 20 weeks relative to control; format: functional
Mus musculus [5] = test: Inhibition of peroxynitrite-induced/TPA promoted skin carcinogenesis in HOS-HR-1 mouse assessed as decrease in tumor incidence at 0.0025%, po treated one week before peroxynitrite-TPA challenge after 20 weeks relative to control; format: functional
Mus musculus [6] = test: Toxicity in HOS-HR-1 mouse at 0.0025%, po; format: organism-based; conditions: in vivo

CCc1cccc2c3c([nH]c12)C(CC)(CC(=O)O)OCC3 (stereo unspecified) [ETODOLAC]
inhibition (INH) (Mus musculus [1]): 40% | Activity (Mus musculus [2]): Non-toxic

CCCCC1C(=O)N(c2ccccc2)N(c2ccc(O)cc2)C1=O (stereo unspecified) [OXYPHENBUTAZONE ANHYDROUS]
inhibition (INH) (Mus musculus [3]): >50% | inhibition (INH) (Mus musculus [4]): 29% | inhibition (INH) (Mus musculus [5]): >20% | Activity (Mus musculus [6]): Non-toxic
